Data: patent publication US8269008B2, “Oxazolopyridine and isoxazolopyridine derivatives for use in the treatment of HIF-mediated conditions” (FibroGen, Inc., priority 2007, dated 2012)

What follows are compounds tested against T1, HIF-PH2 (EGLN1) (Homo sapiens, UniProt Q9GZT9) (assay: HIF-PH assay (14CO2 capture, peptide-dependent turnover)). Conditions: Concentration 22.22 μM.
T1 construct: made in house; host or cells: insect Hi5 cells
Format: biochemical
Excerpt: Ketoglutaric acid α-[1-^14C]-sodium salt, alpha-ketoglutaric acid sodium salt, and HPLC purified peptide may be obtained from commercial sources, e.g., Perkin-Elmer (Wellesley Mass.), Sigma-Aldrich, and SynPep Corp. (Dublin Calif.), respectively. Peptides for use in the assay may be fragments of HIFα as described above or as disclosed in International Publication WO 2005/118836, incorporated by reference herein. For example, a HLF peptide for use in the HIF-PH assay is [methoxycoumarin]-DLDLEALAPYIPADDDFQL-amide. HIF-PH, e.g., HIF-PH2 (EGLN1), can be expressed in, e.g., insect Hi5 cells, and partially purified, e.g., through a SP ion exchange chromatography column. Enzyme activity is determined by capturing ^14CO2 using an assay described by Kivirikko and Myllyla (1982, Methods Enzymol. 82:245-304). Assay reactions contain 50 mM HEPES (pH 7.4), 100 μM α-ketoglutaric acid sodium salt, 0.30 μCi/mL ketoglutaric acid α-[1-^14C]-sodium salt, 40 μM FeSO4, 1 mM ascorbate, 1541.8 units/mL Catalase, with or without 50 μM peptide substrate and various concentrations of compound of the invention. Reactions are initiated by addition of HIF-PH enzyme.
The peptide-dependent percent turnover is calculated by subtracting percent turnover in the absence of peptide from percent turnover in the presence of substrate peptide. Percent inhibition and IC50 are calculated using peptide-dependent percent turnover at given inhibitor concentrations. Calculation of IC50 values for each inhibitor is conducted using GraFit software (Erithacus Software Ltd., Surrey UK). […]

T1 sequence (Q9GZT9 whole entry, species assumed): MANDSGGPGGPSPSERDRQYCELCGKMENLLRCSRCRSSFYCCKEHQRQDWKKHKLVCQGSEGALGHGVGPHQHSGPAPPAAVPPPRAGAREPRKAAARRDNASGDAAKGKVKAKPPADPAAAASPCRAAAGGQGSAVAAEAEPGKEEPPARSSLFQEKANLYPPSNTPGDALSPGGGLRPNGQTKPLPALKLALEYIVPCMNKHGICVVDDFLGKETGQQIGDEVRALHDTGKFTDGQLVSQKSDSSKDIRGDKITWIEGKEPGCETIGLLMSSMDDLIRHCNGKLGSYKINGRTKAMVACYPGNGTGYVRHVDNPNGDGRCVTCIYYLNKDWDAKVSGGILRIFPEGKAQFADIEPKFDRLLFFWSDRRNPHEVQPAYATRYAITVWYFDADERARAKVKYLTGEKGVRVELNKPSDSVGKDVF

Structure (SMILES) | inhibition at 22.22 µM
N#Cc1ccc(-c2noc3cnc(C(=O)NCC(=O)O)c(O)c23)cc1 [Example 68, {[3-(4-Cyano-phenyl)-4-hydroxy-isoxazolo[5,4-c]pyridine-5-carbonyl]-amino}-acetic acid] | 97.4%
O=C(O)CNC(=O)c1nc(Br)c2onc(-c3ccc(F)cc3)c2c1O [Example 22, {[7-Bromo-3-(4-fluoro-phenyl)-4-hydroxy-isoxazolo[5,4-c]pyridine-5-carbonyl]-amino}-acetic acid] | 98.7%

Same assay, conditions: Concentration 200.00 μM

Structure (SMILES) | inhibition at 200 µM
O=C(O)CNC(=O)c1nc(C#Cc2ccccc2)c2nc(-c3ccccc3)oc2c1O [Example 6, [(7-Hydroxy-2-phenyl-4-phenylethynyl-oxazolo[4,5-c]pyridine-6-carbonyl)-amino]-acetic acid] | 99%
N#Cc1nc(C(=O)NCC(=O)O)c(O)c2onc(-c3ccc(Br)o3)c12 [Example 54, {[3-(5-Bromo-furan-2-yl)-4-cyano-7-hydroxy-isoxazolo[4,5-c]pyridine-6-carbonyl]-amino}-acetic acid] | 99.9%
O=C(O)CNC(=O)c1ncc2c(-c3ccccc3)noc2c1O [Example 42, [(7-Hydroxy-3-phenyl-isoxazolo[4,5-c]pyridine-6-carbonyl)-amino]-acetic acid] | 98.4%
O=C(O)CNC(=O)c1ncc2oc(-c3ccccc3)nc2c1O [Example 9, [(7-Hydroxy-2-phenyl-oxazolo[5,4-c]pyridine-6-carbonyl)-amino]-acetic acid] | 98.6%
